Data: publication PMC3119665, “A New Drug Design Targeting the Adenosinergic System for Huntington's Disease” (PLoS ONE, 2011)

Key:
[1] = target: T1, Calcitonin (Homo sapiens, UniProt P30988); experiment: Radioligand binding panel (Table S1); conditions: 10 μM T1-11, n 2
T1 construct: purchased MDS Pharma Services Taiwan

[2] = target: T2, A2B adenosine receptor (Homo sapiens, UniProt P29275); experiment: Radioligand binding assay
T2 construct: MDS Pharma Services Taiwan
T2 sequence (P29275 1-332): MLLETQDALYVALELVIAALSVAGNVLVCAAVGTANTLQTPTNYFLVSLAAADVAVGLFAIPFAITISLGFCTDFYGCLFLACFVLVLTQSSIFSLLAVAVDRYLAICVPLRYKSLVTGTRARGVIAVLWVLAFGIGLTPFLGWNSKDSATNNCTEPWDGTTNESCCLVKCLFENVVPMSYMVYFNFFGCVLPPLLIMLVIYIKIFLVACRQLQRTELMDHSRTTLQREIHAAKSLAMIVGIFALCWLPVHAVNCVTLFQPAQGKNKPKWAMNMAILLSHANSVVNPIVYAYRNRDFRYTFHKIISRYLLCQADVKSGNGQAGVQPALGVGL

[3] = target: T3, Glucocorticoid (Homo sapiens, UniProt P04150); experiment: Radioligand binding panel (Table S1); conditions: 10 μM T1-11, n 2
T3 construct: purchased MDS Pharma Services Taiwan
T3 sequence (P04150 whole entry): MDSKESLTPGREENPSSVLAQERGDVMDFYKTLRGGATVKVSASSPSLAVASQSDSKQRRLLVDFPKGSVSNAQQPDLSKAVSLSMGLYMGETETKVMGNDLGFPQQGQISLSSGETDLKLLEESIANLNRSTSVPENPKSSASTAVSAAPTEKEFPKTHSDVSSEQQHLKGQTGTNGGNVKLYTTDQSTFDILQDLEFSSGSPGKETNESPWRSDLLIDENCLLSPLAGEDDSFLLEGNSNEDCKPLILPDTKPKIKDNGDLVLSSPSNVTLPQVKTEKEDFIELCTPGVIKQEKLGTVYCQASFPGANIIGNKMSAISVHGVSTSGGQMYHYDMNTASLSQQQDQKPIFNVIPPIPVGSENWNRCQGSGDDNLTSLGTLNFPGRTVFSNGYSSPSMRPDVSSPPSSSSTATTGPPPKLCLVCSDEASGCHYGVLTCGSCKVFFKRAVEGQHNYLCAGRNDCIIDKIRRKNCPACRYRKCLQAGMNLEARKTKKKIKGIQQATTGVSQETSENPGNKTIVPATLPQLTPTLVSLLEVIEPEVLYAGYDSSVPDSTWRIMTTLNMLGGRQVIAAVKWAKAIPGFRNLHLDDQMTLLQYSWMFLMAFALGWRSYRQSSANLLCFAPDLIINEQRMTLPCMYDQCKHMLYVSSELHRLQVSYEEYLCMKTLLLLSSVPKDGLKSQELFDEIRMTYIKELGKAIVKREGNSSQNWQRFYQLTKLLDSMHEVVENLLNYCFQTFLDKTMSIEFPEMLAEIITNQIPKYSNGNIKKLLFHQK

[4] = tested on: Purinergic P 2Y; experiment: Radioligand binding panel (Table S1); design: species or system rat; conditions: 10 μM T1-11, n 2
[5] = target: T4, Interleukin IL-6 (Homo sapiens, UniProt P08887); experiment: Radioligand binding panel (Table S1); conditions: 10 μM T1-11, n 2
T4 construct: purchased MDS Pharma Services Taiwan
T4 sequence (P08887 20-468): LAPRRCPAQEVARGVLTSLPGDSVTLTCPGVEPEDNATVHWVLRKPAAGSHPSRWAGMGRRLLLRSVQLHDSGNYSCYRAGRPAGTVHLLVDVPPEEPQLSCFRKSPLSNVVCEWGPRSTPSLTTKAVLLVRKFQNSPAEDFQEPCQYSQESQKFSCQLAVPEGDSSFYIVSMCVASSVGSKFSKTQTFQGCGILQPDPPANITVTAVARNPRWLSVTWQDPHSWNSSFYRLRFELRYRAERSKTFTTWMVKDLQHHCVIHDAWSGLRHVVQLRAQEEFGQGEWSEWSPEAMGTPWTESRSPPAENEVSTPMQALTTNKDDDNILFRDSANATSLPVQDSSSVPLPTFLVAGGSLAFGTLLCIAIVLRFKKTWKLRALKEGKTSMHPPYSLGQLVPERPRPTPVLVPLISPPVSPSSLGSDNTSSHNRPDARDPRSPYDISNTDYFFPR

[6] = target: T5, Estrogen ERα (Homo sapiens, UniProt P03372); experiment: Radioligand binding panel (Table S1); conditions: 10 μM T1-11, n 2
T5 construct: purchased MDS Pharma Services Taiwan
T5 sequence (P03372 whole entry): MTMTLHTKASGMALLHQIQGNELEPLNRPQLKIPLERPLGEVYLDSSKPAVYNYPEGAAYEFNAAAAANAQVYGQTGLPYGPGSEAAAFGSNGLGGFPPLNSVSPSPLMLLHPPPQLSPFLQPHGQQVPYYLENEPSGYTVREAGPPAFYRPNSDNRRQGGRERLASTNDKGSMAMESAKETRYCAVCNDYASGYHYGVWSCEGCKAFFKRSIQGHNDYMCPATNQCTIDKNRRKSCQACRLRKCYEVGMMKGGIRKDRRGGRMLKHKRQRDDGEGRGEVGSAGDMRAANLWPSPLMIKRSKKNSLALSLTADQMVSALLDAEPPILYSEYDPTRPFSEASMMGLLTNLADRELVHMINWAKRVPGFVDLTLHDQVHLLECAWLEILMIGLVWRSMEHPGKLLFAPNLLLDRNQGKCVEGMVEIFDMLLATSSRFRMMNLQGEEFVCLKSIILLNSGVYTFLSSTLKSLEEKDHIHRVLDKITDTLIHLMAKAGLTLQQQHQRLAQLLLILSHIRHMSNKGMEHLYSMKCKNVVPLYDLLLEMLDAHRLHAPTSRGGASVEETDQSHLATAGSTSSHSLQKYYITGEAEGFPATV

[7] = target: T6, Benzodiazepine, Peripheral (Rattus norvegicus, UniProt P16257); experiment: Radioligand binding panel (Table S1); conditions: 10 μM T1-11, n 2
T6 construct: purchased MDS Pharma Services Taiwan

[8] = tested on: GABAA, Non-Selective; experiment: Radioligand binding panel (Table S1); design: species or system rat; conditions: 10 μM T1-11, n 2
[9] = tested on: Glutamate, Non-Selective; experiment: Radioligand binding panel (Table S1); design: species or system rat; conditions: 10 μM T1-11, n 2
[10] = target: T7, Opiate μ (OP3, MOP) (Homo sapiens, UniProt P35372); experiment: Radioligand binding panel (Table S1); conditions: 10 μM T1-11, n 2
T7 construct: purchased MDS Pharma Services Taiwan
T7 sequence (P35372 whole entry): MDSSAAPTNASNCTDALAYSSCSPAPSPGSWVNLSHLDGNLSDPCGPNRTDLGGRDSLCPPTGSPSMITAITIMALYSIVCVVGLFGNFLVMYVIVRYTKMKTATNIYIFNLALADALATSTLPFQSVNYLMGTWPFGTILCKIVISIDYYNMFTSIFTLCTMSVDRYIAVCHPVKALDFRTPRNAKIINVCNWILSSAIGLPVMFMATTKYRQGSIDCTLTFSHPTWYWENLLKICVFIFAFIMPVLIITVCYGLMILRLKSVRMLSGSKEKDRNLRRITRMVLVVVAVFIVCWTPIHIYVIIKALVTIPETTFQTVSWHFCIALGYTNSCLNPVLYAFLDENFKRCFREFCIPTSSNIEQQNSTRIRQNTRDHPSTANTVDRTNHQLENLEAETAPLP

[11] = tested on: GABAA, Benzodiazepine, Central, Flunitrazepam; experiment: Radioligand binding panel (Table S1); design: species or system rat; conditions: 10 μM T1-11, n 2
[12] = target: T8, Phosphodiesterase PDE3 (Homo sapiens, UniProt Q14432); experiment: Radioligand binding panel (Table S1); conditions: 10 μM T1-11, n 2
T8 construct: purchased MDS Pharma Services Taiwan

[13] = target: T9, Muscarinic M2 (Homo sapiens, UniProt P08172); experiment: Radioligand binding panel (Table S1); conditions: 10 μM T1-11, n 2
T9 construct: purchased MDS Pharma Services Taiwan
T9 sequence (P08172 whole entry): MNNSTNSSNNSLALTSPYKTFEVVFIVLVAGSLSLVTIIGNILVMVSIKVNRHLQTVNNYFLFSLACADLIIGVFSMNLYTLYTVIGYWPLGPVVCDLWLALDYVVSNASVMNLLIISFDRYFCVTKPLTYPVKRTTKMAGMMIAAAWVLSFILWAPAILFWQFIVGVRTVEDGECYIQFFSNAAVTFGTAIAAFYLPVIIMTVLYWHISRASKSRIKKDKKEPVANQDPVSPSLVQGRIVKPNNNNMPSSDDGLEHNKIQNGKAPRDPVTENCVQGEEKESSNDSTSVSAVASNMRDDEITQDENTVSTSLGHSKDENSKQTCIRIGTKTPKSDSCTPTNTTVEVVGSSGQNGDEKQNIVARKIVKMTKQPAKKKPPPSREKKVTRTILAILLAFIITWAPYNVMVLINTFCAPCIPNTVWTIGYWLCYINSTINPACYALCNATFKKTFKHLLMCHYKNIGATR

[14] = target: T10, Somatostatin sst5 (Homo sapiens, UniProt P35346); experiment: Radioligand binding panel (Table S1); conditions: 10 μM T1-11, n 2
T10 construct: purchased MDS Pharma Services Taiwan
T10 sequence (P35346 whole entry): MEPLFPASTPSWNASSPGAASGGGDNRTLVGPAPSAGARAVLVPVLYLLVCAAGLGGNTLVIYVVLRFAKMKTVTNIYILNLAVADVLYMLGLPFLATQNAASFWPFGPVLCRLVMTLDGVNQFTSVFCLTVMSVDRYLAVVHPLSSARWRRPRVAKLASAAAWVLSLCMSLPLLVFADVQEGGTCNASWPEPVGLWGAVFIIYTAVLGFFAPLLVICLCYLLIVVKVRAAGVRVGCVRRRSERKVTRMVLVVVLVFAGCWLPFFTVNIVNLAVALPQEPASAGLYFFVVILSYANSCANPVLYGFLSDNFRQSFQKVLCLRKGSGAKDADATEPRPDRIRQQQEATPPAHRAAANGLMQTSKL

[15] = target: T11, human A3R (Homo sapiens, UniProt P0DMS8); experiment: GTPγS binding assay; format: biochemical
T11 construct: host or cells: CHO-K1
T11 sequence (P0DMS8 whole entry): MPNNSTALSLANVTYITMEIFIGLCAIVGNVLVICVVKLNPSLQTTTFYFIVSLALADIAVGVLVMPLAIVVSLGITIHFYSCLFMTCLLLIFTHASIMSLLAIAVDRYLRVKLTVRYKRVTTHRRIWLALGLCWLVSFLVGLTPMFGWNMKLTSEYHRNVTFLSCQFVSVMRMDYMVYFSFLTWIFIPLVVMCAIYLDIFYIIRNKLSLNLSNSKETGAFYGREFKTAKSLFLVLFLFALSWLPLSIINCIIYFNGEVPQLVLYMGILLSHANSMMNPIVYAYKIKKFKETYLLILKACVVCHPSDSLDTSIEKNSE
Experimental: The GTPγS binding assay was conducted by MDS Pharma Services Taiwan using a previously described protocol with slight modifications. In brief, membrane proteins collected from Chinese hamster ovary (CHO-K1) cells expressing the human A3R (5∼10 µg per reaction) were incubated with the indicated drug and ^35S-GTPγS (0.1 nM) in a total volume of 500 µl for 30 min at 30°C. The reaction buffer was composed of 20 mM HEPES (pH 7.4), 100 mM NaCl, 10 mM MgCl2, 1 mM DTT, and 1 mM EDTA. The reaction was terminated by filtration over GF/B glass fibers and washed with the same reaction buffer. Relative GTPγS binding was defined as the percentage of ^35S-GTPγS binding when compared to that of a selective agonist of the A3R (2-Cl-IB-MECA, 3 µM) under the same binding conditions.
Supplementary file pone.0020934.s004.tif: Figure S4 T1-11 binds to the A3 adenosine receptor (A3R) without evoking a significant binding of GTP. Membrane fractions collected from CHO-K1 cells expressing the human A3R were incubated with T1-11 at the indicated concentration and ^35S-GTPγS (0.1 nM) for 30 min at 30°C. Relative GTPγS binding was defined as the percentage of ^35S-GTPγS binding when compared with a selective agonist of the A3R (2-Cl-IB-MECA, 3 µM). (TIF) Click here for additional data file.

[16] = target: T12, Melanocortin MC4 (Homo sapiens, UniProt P32245); experiment: Radioligand binding panel (Table S1); conditions: 10 μM T1-11, n 2
T12 construct: purchased MDS Pharma Services Taiwan
T12 sequence (P32245 whole entry): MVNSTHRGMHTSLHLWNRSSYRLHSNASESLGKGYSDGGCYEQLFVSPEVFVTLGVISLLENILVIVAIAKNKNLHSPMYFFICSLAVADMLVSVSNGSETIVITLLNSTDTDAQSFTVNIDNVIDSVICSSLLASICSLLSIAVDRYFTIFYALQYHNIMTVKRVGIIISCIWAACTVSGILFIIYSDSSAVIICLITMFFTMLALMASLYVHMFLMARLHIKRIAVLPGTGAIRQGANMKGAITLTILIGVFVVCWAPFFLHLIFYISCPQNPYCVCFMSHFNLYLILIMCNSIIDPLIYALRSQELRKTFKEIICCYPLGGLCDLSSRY

[17] = tested on: Serotonin (5-Hydroxytryptamine) 5-HT1, Non-Selective; experiment: Radioligand binding panel (Table S1); design: species or system rat; conditions: 10 μM T1-11, n 2
[18] = target: T13, Neuropeptide Y Y1 (Homo sapiens, UniProt P25929); experiment: Radioligand binding panel (Table S1); conditions: 10 μM T1-11, n 2
T13 construct: purchased MDS Pharma Services Taiwan

[19] = target: T14, A1 adenosine receptor (Homo sapiens, UniProt P30542); experiment: Radioligand binding assay
T14 construct: MDS Pharma Services Taiwan
T14 sequence (P30542 1-326): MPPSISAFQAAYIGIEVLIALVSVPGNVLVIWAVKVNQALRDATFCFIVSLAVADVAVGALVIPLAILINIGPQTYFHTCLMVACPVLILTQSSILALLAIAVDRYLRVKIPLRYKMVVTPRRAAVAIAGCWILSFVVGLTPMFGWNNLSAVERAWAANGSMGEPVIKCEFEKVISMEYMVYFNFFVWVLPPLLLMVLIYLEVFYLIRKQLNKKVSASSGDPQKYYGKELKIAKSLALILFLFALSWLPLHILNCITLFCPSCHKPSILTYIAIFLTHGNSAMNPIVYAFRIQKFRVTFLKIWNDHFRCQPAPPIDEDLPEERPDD

[20] = target: T15, Sigma σ1 (Homo sapiens, UniProt Q99720); experiment: Radioligand binding panel (Table S1); conditions: 10 μM T1-11, n 2
T15 construct: purchased MDS Pharma Services Taiwan
T15 sequence (Q99720 whole entry): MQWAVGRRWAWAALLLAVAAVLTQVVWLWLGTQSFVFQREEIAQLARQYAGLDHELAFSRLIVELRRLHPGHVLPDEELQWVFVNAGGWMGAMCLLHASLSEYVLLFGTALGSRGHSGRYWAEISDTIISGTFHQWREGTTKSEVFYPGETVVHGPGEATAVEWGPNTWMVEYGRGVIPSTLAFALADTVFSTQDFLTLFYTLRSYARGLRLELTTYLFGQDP

[21] = target: T16, A2AR (Mus musculus, UniProt Q60613); experiment: cAMP level in the brain after intraperitoneal injection; format: in vivo; conditions: single intraperitoneal injection 5 mg/kg body weight, 60 min, wildtype and A2AR knockout mice
T16 construct: Brain tissues were carefully removed, and homogenized in 1 ml of assay buffer; from tissue; host or cells: brain of C57BL6 mice (in vivo dosing)
T16 sequence (Q60613 whole entry): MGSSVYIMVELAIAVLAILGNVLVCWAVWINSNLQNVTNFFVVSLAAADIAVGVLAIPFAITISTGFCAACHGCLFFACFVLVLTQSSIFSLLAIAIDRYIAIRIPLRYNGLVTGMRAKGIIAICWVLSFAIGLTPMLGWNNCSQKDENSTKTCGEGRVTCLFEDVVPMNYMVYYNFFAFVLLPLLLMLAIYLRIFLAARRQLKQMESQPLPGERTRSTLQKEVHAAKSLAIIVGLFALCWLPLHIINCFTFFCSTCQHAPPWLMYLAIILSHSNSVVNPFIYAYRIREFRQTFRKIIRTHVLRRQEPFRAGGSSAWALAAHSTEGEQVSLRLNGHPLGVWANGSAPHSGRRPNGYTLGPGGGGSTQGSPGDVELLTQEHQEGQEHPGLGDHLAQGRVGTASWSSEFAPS
Experimental: C57BL6 mice (8 weeks old) were intraperitoneally (i.p.) administrated with T1-11 (5 mg/kg body weight, n = 4) or vehicle for 60 min. Brain tissues were carefully removed, and homogenized in 1 ml of assay buffer (25 mM Tris (pH 8), 1 mM EGTA, 1 mM MgCl2, […], […], 10 nM okadaic acid, 1× EDTA free proteinase inhibitor cocktail (Roche), 0.5 mM IBMX, and […]). Trichloroacetic acid (6%, final concentration) was then added to the lysate to precipitate proteins. The cAMP level in the supernatant was analyzed as previously described.

[22] = n.s. = not significant, no significant binding at 10 µM

T1 sequence (P30988 25-474): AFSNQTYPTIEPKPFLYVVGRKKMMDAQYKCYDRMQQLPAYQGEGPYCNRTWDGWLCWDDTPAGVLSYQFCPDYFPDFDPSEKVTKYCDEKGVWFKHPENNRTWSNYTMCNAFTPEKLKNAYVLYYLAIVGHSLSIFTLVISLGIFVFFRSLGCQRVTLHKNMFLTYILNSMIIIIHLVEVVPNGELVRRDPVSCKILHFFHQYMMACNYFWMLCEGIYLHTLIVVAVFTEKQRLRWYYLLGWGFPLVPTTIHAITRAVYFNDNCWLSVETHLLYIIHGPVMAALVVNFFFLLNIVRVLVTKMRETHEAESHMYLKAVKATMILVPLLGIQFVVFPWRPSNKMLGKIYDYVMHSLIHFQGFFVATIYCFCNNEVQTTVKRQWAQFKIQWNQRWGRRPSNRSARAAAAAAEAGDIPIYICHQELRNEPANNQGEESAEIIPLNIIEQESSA

`OC[C@H]1O[C@@H](n2cnc3c(NCc4ccc(O)cc4)ncnc32)[C@H](O)[C@@H]1O` [T1-11, N ^6-(4-hydroxybenzyl)adenine riboside] was tested. Which inhibition at 10 µM [1] did it give?
Its inhibition at 10 µM is 15%.

And the inhibition at 10 µM ([2]; 10 μM T1-11, n 2)?
The inhibition at 10 µM was 0%.

And the IC50 [2, 22]?
Its IC50 is “n.s”.

And the Ki [2, 22]?
Its Ki is “n.s”.

What about the inhibition at 10 µM [3] of the same compound?
Its inhibition at 10 µM is -10%.

What about the “% Inhibition” value [4] of the same compound?
The value was 17%.

And the inhibition at 10 µM [5]?
Its inhibition at 10 µM is -3%.

What about the inhibition at 10 µM [6] of the same compound?
The inhibition at 10 µM was 32%.

What about the inhibition at 10 µM [7] of the same compound?
Its inhibition at 10 µM is 3%.

And the “% Inhibition” value [8]?
The value was 5%.

What about the “% Inhibition” value [9] of the same compound?
The value was -1%.

What about the inhibition at 10 µM [10] of the same compound?
Its inhibition at 10 µM is 5%.

And the “% Inhibition” value [11]?
Its value is 6%.

And the inhibition at 10 µM [12]?
Its inhibition at 10 µM is 0%.

And the inhibition at 10 µM [13]?
Its inhibition at 10 µM is 4%.

And the inhibition at 10 µM [14]?
The inhibition at 10 µM was 4%.

And the “GTP binding compared to 2-Cl-IB-MECA (3 µM)” value ([15]; 100 µM T1-11)?
The value was “less than 50%”.

What about the Function ([15]; A3 adenosine receptor, GTPγS binding, n.s. = not significant) of the same compound?
The Function was “n.s”.

What about the inhibition at 10 µM [16] of the same compound?
The inhibition at 10 µM was 5%.

And the “% Inhibition” value [17]?
The value was 10%.

What about the inhibition at 10 µM [18] of the same compound?
Its inhibition at 10 µM is 6%.

And the inhibition at 10 µM ([19]; 10 μM T1-11, n 2)?
The inhibition at 10 µM was 23%.

What about the IC50 [19, 22] of the same compound?
The IC50 was “n.s”.

What about the Ki [19, 22] of the same compound?
The Ki was “n.s”.

And the inhibition at 10 µM [20]?
The inhibition at 10 µM was 7%.

And the “cAMP levels in the brain” value [21]?
Its value is “increased cAMP levels in the brains of wildtype, but not A2AR knockout”.
